What is called IC50 is the concentration needed to halve the response being measured.

Structures are written as SMILES.

Holding throughout (format): biochemical
In one assay the target is T1, NEU3 (Homo sapiens, UniProt Q9UQ49).
T1 sequence (Q9UQ49 1-428): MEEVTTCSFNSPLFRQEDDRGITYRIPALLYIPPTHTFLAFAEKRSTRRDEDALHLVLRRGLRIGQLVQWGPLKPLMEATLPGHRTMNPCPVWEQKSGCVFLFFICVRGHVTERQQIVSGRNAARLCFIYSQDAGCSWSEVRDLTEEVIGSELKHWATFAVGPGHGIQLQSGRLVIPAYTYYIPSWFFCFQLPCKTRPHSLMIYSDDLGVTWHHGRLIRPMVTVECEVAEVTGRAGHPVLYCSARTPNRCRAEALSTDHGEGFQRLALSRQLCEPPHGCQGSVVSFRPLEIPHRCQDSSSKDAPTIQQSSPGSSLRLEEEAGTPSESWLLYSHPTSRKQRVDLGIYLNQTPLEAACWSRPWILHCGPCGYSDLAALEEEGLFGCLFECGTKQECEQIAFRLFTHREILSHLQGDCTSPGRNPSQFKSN
As to the kind of experiment: IC50 inhibition assay using 4MU-NANA as the substrate, NEU3. The following applies: 4MU-NANA as the substrate; read-out: IC50 NEU3. Also noted: MBP (N); made in house; host or cells: E. coli.

The next assay has as its target T2, NEU1 (Homo sapiens, UniProt Q99519).
T2 construct: made in house; host or cells: HEK293 (lentiviral transduction), crude lysate
As to the kind of experiment: IC50 inhibition assay using 4MU-NANA as the substrate, NEU1. Particulars: 4MU-NANA as the substrate; read-out: IC50 NEU1. The protocol: Two weeks after transduction cells were harvested and a crude lysate showing ˜200 nmol/h mg of sialidase activity used in experiments.
Assays were performed with duplicates for each point and IC50 was obtained by plotting the data with Graphpad™ Prism 5.0.

The target in another assay is T3, NEU4 (Homo sapiens, UniProt Q8WWR8).
T3 sequence (Q8WWR8 1-484): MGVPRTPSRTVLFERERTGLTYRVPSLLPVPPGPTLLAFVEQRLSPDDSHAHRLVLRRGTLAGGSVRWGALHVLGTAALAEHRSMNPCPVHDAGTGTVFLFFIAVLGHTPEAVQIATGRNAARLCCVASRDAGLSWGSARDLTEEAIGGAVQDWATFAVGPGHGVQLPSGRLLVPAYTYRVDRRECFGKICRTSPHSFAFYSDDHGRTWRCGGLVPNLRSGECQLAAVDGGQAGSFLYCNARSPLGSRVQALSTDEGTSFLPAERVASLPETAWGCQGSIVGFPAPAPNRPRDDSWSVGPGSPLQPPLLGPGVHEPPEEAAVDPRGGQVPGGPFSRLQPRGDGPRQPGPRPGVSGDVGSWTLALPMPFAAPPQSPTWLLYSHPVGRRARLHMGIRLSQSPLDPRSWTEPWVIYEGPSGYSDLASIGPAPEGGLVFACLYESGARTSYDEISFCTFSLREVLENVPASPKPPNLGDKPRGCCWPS
As to the kind of experiment: IC50 inhibition assay using 4MU-NANA as the substrate, NEU4. Also noted: GST; made in house; host or cells: E. coli. Particulars: 4MU-NANA as the substrate; read-out: IC50 NEU4.

A further assay relates to NEU1, NEU2, NEU3, NEU4. Put plainly: Isoenzyme specificity/selectivity from 4MU-NANA IC50 across the four human neuraminidases. Particulars: isoenzyme(s) the compound is specific for; dual (bispecific) when ratio of IC50 is about 3 or less.

On to `CC(=O)Nc1ccc(C(=O)NC[C@@H](O)[C@@H](O)[C@@H]2OC(C(=O)O)=C[C@H](O)[C@H]2NC(C)=O)cc1` [compound 58, 5-Acetamido-9-(4-acetamido)benzamido-2,6-anhydro-3,5-dideoxy-d-glycero-d-galacto-non-2-enonic acid], for which the IC50 came out at 7.2 ± 1.2 µM at NEU3, 1.9 ± 0.4 µM on NEU1 and 24 ± 6 µM on NEU4. In addition, the Target entry with NEU1, NEU2, NEU3, NEU4 is reported as “NEU1”.

Regarding `CCC(=O)N[C@H]1[C@H]([C@H](O)[C@H](O)CO)OC(C(=O)O)=C[C@@H]1O` [compound 29, 5-Propionamido-2,6-anhydro-3,5-dideoxy-D-glycero-D-galacto-non-2-enonic acid], the IC50 on NEU3 is 60 ± 7 µM; on NEU1 it was 18 ± 1 µM; on NEU4 it was 87 ± 18 µM. For the same molecule, the Target result in the assay on NEU1, NEU2, NEU3, NEU4 is recorded as “NEU1”.

As to `CN(C)c1ccc(-c2cn(CC(=O)N[C@@H]3C(O)C=C(C(=O)O)OC3C(O)C(O)CO)nn2)cc1` (stereo partly drawn) [compound 47, 5-(2-(4-(4-(dimethylamino)phenyl-1H-1,2,3-triazol-1-yl)acetamido))-2,3,5-trideoxy-D-glycero-D-galacto-2-nonulopyranosonic acid], the IC50 worked out at 46 ± 7 µM at NEU3, 110 ± 10 µM on NEU1 and 36 ± 5 µM on NEU4. Also, the Target entry with NEU1, NEU2, NEU3, NEU4 was “NEU1/ NEU2/ NEU3/ NEU4”.

Consider `CC(C)C(=O)N[C@H]1[C@H]([C@H](O)[C@H](O)CO)OC(C(=O)O)=C[C@@H]1O` [compound 34, 5-isobutyramido-2,6-anhydro-3,5-dideoxy-D-glycero-D-galacto-non-2-enonic acid], for which the results for the IC50 at NEU3, at NEU1 and on NEU4 were over 500 µM, 5.3 ± 0.8 µM and 71 ± 17 µM, respectively. Further, the Target entry in the assay with NEU1, NEU2, NEU3, NEU4 is reported as “NEU1”.

Turning to `O=C(Cn1cc(-c2ccc(F)cc2)nn1)N[C@@H]1C(O)C=C(C(=O)O)OC1C(O)C(O)CO` (stereo partly shown) [compound 45], the IC50 on NEU3 is 240 ± 40 µM; at NEU1 it was over 500 µM; at NEU4, 100 ± 20 µM. In addition, the Target result in the assay on NEU1, NEU2, NEU3, NEU4 was “NEU2”.

Regarding `CCCCCCC(=O)NCC(O)C(O)C1OC(C(=O)O)=CC(O)[C@H]1NC(C)=O` (stereo partly drawn) [compound 52, 5-Acetamido-9-heptanamido-2,6-anhydro-3,5-dideoxy-D-glycero-D-galacto-non-2-enonic acid], the IC50 at NEU3 amounted to 39 ± 8 µM; at NEU1, 9.9 ± 1.3 µM; at NEU4, 310 ± 30 µM. The Target result in the assay on NEU1, NEU2, NEU3, NEU4 was “NEU1”.

`CC(=O)N[C@@H]1C(O)C=C(C(=O)O)OC1C(O)C(O)Cn1cc(-c2ccc(C(=O)O)cc2)nn1` (stereo partly shown) [7h]: the IC50 on NEU3 was 1.1 ± 0.1 µM; on NEU1, 240 ± 90 µM; on NEU4, 3 ± 0.3 µM. The Target result in the assay on NEU1, NEU2, NEU3, NEU4 is recorded as “NEU3/ NEU4”.

Consider `CC(=O)N[C@H]1[C@H]([C@H](O)[C@H](O)CNC(=O)c2ccc(N)cc2)OC(C(=O)O)=C[C@@H]1O` [compound 59, 5-Acetamido-9-(4-amino)benzamido-2,6-anhydro-3,5-dideoxy-b-glycero-D-galacto-non-2-enonic acid], for which the IC50 turned out to be 31 ± 6 µM on NEU3, 29 ± 5 µM on NEU1 and 210 ± 80 µM at NEU4. In addition, the Target result in the assay on NEU1, NEU2, NEU3, NEU4 is “NEU1/ NEU3”.

Regarding `CC(=O)Nc1ccc(C(=O)NCCCCC(=O)NC[C@@H](O)[C@@H](O)[C@@H]2OC(C(=O)O)=C[C@H](O)[C@H]2NC(C)=O)cc1` [compound 62, 5-Acetamido-9-(5-(4-acetamidobenzamido))pentanamido-2,6-anhydro-3,5-dideoxy-d-glycero-d-galacto-non-2-enonic acid], the IC50 at NEU3 turned out to be 31 ± 5 µM; at NEU1, 240 ± 70 µM; at NEU4 it was 46 ± 13 µM. Also, the Target entry in the assay with NEU1, NEU2, NEU3, NEU4 is “NEU3/ NEU4”.

Turning to `COc1ccc(-c2cn(CC(=O)N[C@@H]3C(O)C=C(C(=O)O)OC3C(O)C(O)CO)nn2)cc1` (stereo partly shown) [compound 44], the IC50 was over 500 µM on NEU3, over 500 µM at NEU1 and 87 ± 14 µM at NEU4. Besides, the Target entry with NEU1, NEU2, NEU3, NEU4 is “NEU2”.

`CC(C)CCC(=O)N[C@H]1[C@H]([C@H](O)[C@H](O)CO)OC(C(=O)O)=C[C@@H]1O` [compound 36, 5-(4-Methylpentanamido)-2,6-anhydro-3,5-dideoxy-D-glycero-D-galacto-non-2-enonic acid]: the IC50 at NEU3 stood at 150 ± 20 µM; on NEU1 it was 1.7 ± 0.1 µM; at NEU4, 370 ± 160 µM. Besides, the Target entry in the assay on NEU1, NEU2, NEU3, NEU4 is listed as “NEU1”.

With `CC(=O)N[C@H]1[C@H]([C@H](O)[C@H](O)Cn2cc(-c3ccc(N)cc3)nn2)OC(C(=O)O)=C[C@@H]1O` [7c], the IC50 at NEU3 amounted to 8.7 ± 0.9 µM; at NEU1 it was 76 ± 16 µM; on NEU4, 12 ± 1 µM. The Target entry in the assay with NEU1, NEU2, NEU3, NEU4 is listed as “NEU3/ NEU4”.

With `CC(=O)Nc1ccc(-c2cn(CC(=O)N[C@@H]3C(O)C=C(C(=O)O)OC3C(O)C(O)CO)nn2)cc1` (stereo partly shown) [compound 48], the IC50 on NEU3, on NEU1 and on NEU4 was over 500 µM each time. For the same molecule, in the assay on NEU1, NEU2, NEU3, NEU4, the Target entry is recorded as “NEU2”.

On to `CCCCCC(=O)NC[C@@H](O)[C@@H](O)[C@@H]1OC(C(=O)O)=C[C@H](O)[C@H]1NC(=O)CC` [compound 66, 5-Propionamido-9-hexanamido-2,6-anhydro-3,5-dideoxy-D-glycero-D-galacto-non-2-enonic acid], for which the results for the IC50 at NEU3, at NEU1 and at NEU4 were 260 ± 70 µM, 1.4 ± 0.2 µM and 210 ± 90 µM, respectively. In addition, the Target entry in the assay with NEU1, NEU2, NEU3, NEU4 was “NEU1”.

Turning to `CCCC(=O)N[C@@H]1C(O)C=C(C(=O)O)OC1C(O)C(O)CO` (stereo partly shown) [compound 30, 5-Butyramido-2,6-anhydro-3,5-dideoxy-n-glycero-n-galacto-non-2-enonic acid], the IC50 on NEU3 was 15 ± 2 µM; at NEU1 it was 8.4 ± 0.5 µM; on NEU4, 8.4 ± 0.4 µM. In addition, the Target entry in the assay with NEU1, NEU2, NEU3, NEU4 is on record as “NEU1/ NEU4”.

On to `CC(=O)Nc1cccc(C(=O)NC[C@@H](O)[C@@H](O)[C@@H]2OC(C(=O)O)=C[C@H](O)[C@H]2NC(C)=O)c1` [compound 60, 5-Acetamido-9-(3-acetamido)benzamido-2,6-anhydro-3,5-dideoxy-d-glycero-d-galacto-non-2-enonic acid], for which the IC50 was found to be 7.1 ± 0.7 µM on NEU3, 6.5 ± 1.1 µM on NEU1 and 52 ± 9 µM on NEU4. Moreover, in the assay with NEU1, NEU2, NEU3, NEU4, the Target result is listed as “NEU1/ NEU3”.

Regarding `CC(=O)N[C@@H]1C(O)C=C(C(=O)O)OC1C(O)C(O)CNC(=O)CCC(C)C` (stereo partly drawn) [compound 55, 5-Acetamido-9-(4-methylpentanamido)-2,6-anhydro-3,5-dideoxy-D-glycero-D-galacto-non-2-enonic acid], the IC50 on NEU3 was found to be 54 ± 6 µM; at NEU1 it was 3.2 ± 0.3 µM; on NEU4, 150 ± 50 µM. Besides, the Target result in the assay with NEU1, NEU2, NEU3, NEU4 is listed as “NEU1”.

On to `COc1ccc(-c2cn(C[C@@H](O)[C@@H](O)[C@@H]3OC(C(=O)O)=C[C@H](O)[C@H]3NC(C)=O)nn2)cc1` [7e, 5-Acetamido-(4-methoxyphenyl)-2,6-anhydro-3,5-dideoxy-b-glycero-D-galacto-non-2-enonic acid], for which the values for the IC50 on NEU3, on NEU1 and on NEU4 were 5.9 ± 0.4 µM, 47 ± 6 µM and 2.6 ± 0.3 µM, respectively. Further, the Target result with NEU1, NEU2, NEU3, NEU4 is “NEU3/ NEU4”.

`CCCCCC(=O)NC[C@@H](O)[C@@H](O)[C@@H]1OC(C(=O)O)=C[C@H](O)[C@H]1NC(=O)CCCCC` [compound 64, 5-Hexanamido-9-hexanamido-2,6-anhydro-3,5-dideoxy-d-glycero-d-galacto-non-2-enonic acid]: the IC50 on NEU3 is over 500 µM; at NEU1, 4.3 ± 0.8 µM; at NEU4, over 500 µM. The Target entry with NEU1, NEU2, NEU3, NEU4 is recorded as “NEU1”.
